Reference: ChEMBL document CHEMBL4308841, “Synthesis, in vitro antiproliferative activity, and kinase inhibitory effects of pyrazole-containing diarylureas and diarylamides” (Eur J Med Chem, 2018)

How the values were obtained:
[1] = test system: NCI-H322M; assay: Growth inhibition of human NCI-H322M cells incubated for 48 hrs by sulforhodamine B assay; type: functional, cell-based
[2] = test system: SF-268; assay: Growth inhibition of human SF268 cells incubated for 48 hrs by sulforhodamine B assay; type: functional, cell-based; details: SF-268, 48 h
[3] = test system: IGROV-1; assay: Growth inhibition of human IGROV1 cells incubated for 48 hrs by sulforhodamine B assay; type: functional, cell-based; details: IGROV-1, 48 h
[4] = test system: OVCAR-3; assay: Growth inhibition of human OVCAR3 cells incubated for 48 hrs by sulforhodamine B assay; type: functional, cell-based; details: OVCAR-3, 48 h
[5] = test system: RXF 393; assay: Growth inhibition of human RXF393 cells incubated for 48 hrs by sulforhodamine B assay; type: functional, cell-based; details: RXF 393, 48 h
[6] = test system: PC-3; assay: Growth inhibition of human PC3 cells incubated for 48 hrs by sulforhodamine B assay; type: functional, cell-based; details: PC-3, 48 h
[7] = test system: SR; assay: Growth inhibition of human SR cells assessed as cell growth at 0.01 uM incubated for 48 hrs by sulforhodamine B assay relative to control; type: functional; details: read-out: Activity
[8] = test system: KM12; assay: Growth inhibition of human KM12 cells assessed as cell growth at 0.01 uM incubated for 48 hrs by sulforhodamine B assay relative to control; type: functional; details: KM12, 48 h, read-out: Activity
[9] = test system: SNB-19; assay: Growth inhibition of human SNB19 cells assessed as cell growth at 0.01 uM incubated for 48 hrs by sulforhodamine B assay relative to control; type: functional; details: SNB-19, 48 h, read-out: Activity
[10] = test system: SN12C; assay: Growth inhibition of human SN12C cells assessed as cell growth at 0.01 uM incubated for 48 hrs by sulforhodamine B assay relative to control; type: functional; details: read-out: Activity
[11] = test system: SF-268; assay: Growth inhibition of human SF268 cells assessed as cell growth at 0.1 uM incubated for 48 hrs by sulforhodamine B assay relative to control; type: functional; details: SF-268, 48 h, read-out: Activity
[12] = test system: SNB-19; assay: Growth inhibition of human SNB19 cells assessed as cell growth at 0.1 uM incubated for 48 hrs by sulforhodamine B assay relative to control; type: functional; details: SNB-19, 48 h, read-out: Activity
[13] = test system: U-251; assay: Growth inhibition of human U251 cells assessed as cell growth at 0.1 uM incubated for 48 hrs by sulforhodamine B assay relative to control; type: functional; details: U-251, 48 h, read-out: Activity
[14] = test system: OVCAR-5; assay: Growth inhibition of human OVCAR5 cells assessed as cell growth at 0.1 uM incubated for 48 hrs by sulforhodamine B assay relative to control; type: functional; details: OVCAR-5, 48 h, read-out: Activity
[15] = test system: RXF 393; assay: Growth inhibition of human RXF393 cells assessed as cell growth at 0.1 uM incubated for 48 hrs by sulforhodamine B assay relative to control; type: functional; details: RXF 393, 48 h, read-out: Activity
[16] = test system: NCI-H23; assay: Growth inhibition of human NCI-H23 cells assessed as cell growth at 1 uM incubated for 48 hrs by sulforhodamine B assay relative to control; type: functional; details: NCI-H23, 48 h, read-out: Activity
[17] = test system: SF-268; assay: Growth inhibition of human SF268 cells assessed as cell growth at 1 uM incubated for 48 hrs by sulforhodamine B assay relative to control; type: functional; details: SF-268, 48 h, read-out: Activity
[18] = test system: SF-539; assay: Growth inhibition of human SF539 cells assessed as cell growth at 1 uM incubated for 48 hrs by sulforhodamine B assay relative to control; type: functional; details: SF-539, 48 h, read-out: Activity
[19] = test system: SNB-75; assay: Growth inhibition of human SNB75 cells assessed as cell growth at 1 uM incubated for 48 hrs by sulforhodamine B assay relative to control; type: functional; details: SNB-75, 48 h, read-out: Activity
[20] = test system: Malme-3M; assay: Growth inhibition of human MALME-3M cells assessed as cell growth at 1 uM incubated for 48 hrs by sulforhodamine B assay relative to control; type: functional; details: read-out: Activity
[21] = test system: UACC-62; assay: Growth inhibition of human UACC62 cells assessed as cell growth at 1 uM incubated for 48 hrs by sulforhodamine B assay relative to control; type: functional; details: UACC-62, 48 h, read-out: Activity
[22] = test system: SN12C; assay: Growth inhibition of human SN12C cells assessed as cell growth at 1 uM incubated for 48 hrs by sulforhodamine B assay relative to control; type: functional; details: read-out: Activity
[23] = test system: UO-31; assay: Growth inhibition of human UO31 cells assessed as cell growth at 1 uM incubated for 48 hrs by sulforhodamine B assay relative to control; type: functional; details: UO-31, 48 h, read-out: Activity
[24] = test system: MCF7; assay: Growth inhibition of human MCF7 cells assessed as cell growth at 1 uM incubated for 48 hrs by sulforhodamine B assay relative to control; type: functional; details: MCF7, 48 h, read-out: Activity
[25] = test system: Hs-578T; assay: Growth inhibition of human Hs578T cells assessed as cell growth at 1 uM incubated for 48 hrs by sulforhodamine B assay relative to control; type: functional; details: read-out: Activity
[26] = test system: NCI-H226; assay: Growth inhibition of human NCI-H226 cells assessed as cell growth at 100 uM incubated for 48 hrs by sulforhodamine B assay relative to control; type: functional; details: NCI-H226, 48 h, read-out: Activity
[27] = test system: HCC 2998; assay: Growth inhibition of human HCC2998 cells assessed as cell growth at 100 uM incubated for 48 hrs by sulforhodamine B assay relative to control; type: functional; details: HCC 2998, 48 h, read-out: Activity
[28] = test system: IGROV-1; assay: Growth inhibition of human IGROV1 cells assessed as cell growth at 100 uM incubated for 48 hrs by sulforhodamine B assay relative to control; type: functional; details: IGROV-1, 48 h, read-out: Activity
[29] = test system: OVCAR-3; assay: Growth inhibition of human OVCAR3 cells assessed as cell growth at 100 uM incubated for 48 hrs by sulforhodamine B assay relative to control; type: functional; details: OVCAR-3, 48 h, read-out: Activity
[30] = test system: OVCAR-5; assay: Growth inhibition of human OVCAR5 cells assessed as cell growth at 100 uM incubated for 48 hrs by sulforhodamine B assay relative to control; type: functional; details: OVCAR-5, 48 h, read-out: Activity
[31] = test system: NCI/ADR-RES; assay: Growth inhibition of human NCI/ADR-RES cells assessed as cell growth at 100 uM incubated for 48 hrs by sulforhodamine B assay relative to control; type: functional; details: read-out: Activity
[32] = read-out: LC50 (the source's name)
[33] = read-out: pLC50 (the source's name) (converted)

## COc1cc(Cl)cc(-c2nn(-c3cccc(NC(=O)Nc4ccc(Cl)c(C(F)(F)F)c4)c3)cc2-c2ccncc2)c1
[1]; read-out: GI50
  GI50: 3.38 µM
[1]; [32]
  CC50: > 100 µM
[1]; read-out: TGI
  TGI: 24 µM
[1]; read-out: pGI50 (converted)
  GI50: 3.39 µM
[1]; [33]
  CC50: > 100 µM
[1]; read-out: pTGI (converted)
  TGI: 25.1 µM
[2]; read-out: GI50
  GI50: 2.55 µM
[2]; [32]
  CC50: 7.96 µM
[2]; read-out: TGI
  TGI: 12.1 µM
[2]; read-out: pGI50 (converted)
  GI50: 2.63 µM
[2]; [33]
  CC50: 79.4 µM
[2]; read-out: pTGI (converted)
  TGI: 12 µM
[3]; read-out: GI50
  GI50: 3.2 µM
[3]; [32]
  CC50: > 100 µM
[3]; read-out: TGI
  TGI: 29.1 µM
[3]; read-out: pGI50 (converted)
  GI50: 3.24 µM
[3]; [33]
  CC50: > 100 µM
[3]; read-out: pTGI (converted)
  TGI: 3.55 µM
[4]
  IC50: 0.45 µM
[4]; read-out: GI50
  GI50: 0.451 µM
[4]; [32]
  CC50: 54.6 µM
[4]; read-out: TGI
  TGI: 25.5 µM
[4]; read-out: pGI50 (converted)
  GI50: 4.47 µM
[4]; [33]
  CC50: 55 µM
[4]; read-out: pTGI (converted)
  TGI: 28.8 µM
[5]
  LC50: 28.2 µM
[5]; read-out: GI50
  GI50: 1.71 µM
[5]; read-out: TGI
  TGI: 44.2 µM
[5]; read-out: pGI50 (converted)
  GI50: 1.7 µM
[5]; read-out: pTGI (converted)
  TGI: 9.33 µM
[6]
  IC50: 0.34 µM
[6]; read-out: GI50
  GI50: 0.342 µM
[6]; [32]
  CC50: > 100 µM
[6]; read-out: TGI
  TGI: 21.2 µM
[6]; read-out: pGI50 (converted)
  GI50: 0.339 µM
[6]; [33]
  CC50: > 100 µM
[6]; read-out: pTGI (converted)
  TGI: 2.14 µM
[7]
  growth at 0.01 µM: 95%
[8]
  growth at 0.01 µM: 95%
[9]
  growth at 0.01 µM: 92%
[10]
  growth at 0.01 µM: 98%
[11]
  growth at 0.1 µM: 90%
[12]
  growth at 0.1 µM: 95%
[13]
  growth at 0.1 µM: 92%
[14]
  growth at 0.1 µM: 73%
[15]
  growth at 0.1 µM: 96%
[16]
  growth at 1 µM: 60%
[17]
  growth at 1 µM: 83%
[18]
  growth at 1 µM: 75%
[19]
  growth at 1 µM: 68%
[20]
  growth at 1 µM: 67%
[21]
  growth at 1 µM: 82%
[22]
  growth at 1 µM: 63%
[23]
  growth at 1 µM: 64%
[24]
  growth at 1 µM: 50%
[25]
  growth at 1 µM: 89%
[26]
  growth at 100 µM: -29%
[27]
  growth at 100 µM: -75%
[28]
  growth at 100 µM: -16%
[29]
  growth at 100 µM: -56%
[30]
  growth at 100 µM: -89%
[31]
  growth at 100 µM: -15%

## COc1cc(Cl)cc(-c2nn(-c3cccc(NC(=O)c4ccc(N5CCOCC5)c(C(F)(F)F)c4)c3)cc2-c2ccncc2)c1
[1]; read-out: GI50
  GI50: 7.37 µM
[1]; [32]
  CC50: > 100 µM
[1]; read-out: TGI
  TGI: > 100 µM
[1]; read-out: pGI50 (converted)
  GI50: 74.1 µM
[1]; [33]
  CC50: > 100 µM
[1]; read-out: pTGI (converted)
  TGI: > 100 µM
[2]; read-out: GI50
  GI50: > 100 µM
[2]; [32]
  CC50: > 100 µM
[2]; read-out: TGI
  TGI: > 100 µM
[2]; read-out: pGI50 (converted)
  GI50: > 100 µM
[2]; [33]
  CC50: > 100 µM
[2]; read-out: pTGI (converted)
  TGI: > 100 µM
[3]; read-out: GI50
  GI50: > 100 µM
[3]; [32]
  CC50: > 100 µM
[3]; read-out: TGI
  TGI: > 100 µM
[3]; read-out: pGI50 (converted)
  GI50: > 100 µM
[3]; [33]
  CC50: > 100 µM
[3]; read-out: pTGI (converted)
  TGI: > 100 µM
[4]
  IC50: 53.1 µM
[4]; read-out: GI50
  GI50: 5.31 µM
[4]; [32]
  CC50: > 100 µM
[4]; read-out: TGI
  TGI: > 100 µM
[4]; read-out: pGI50 (converted)
  GI50: 53.7 µM
[4]; [33]
  CC50: > 100 µM
[4]; read-out: pTGI (converted)
  TGI: > 100 µM
[5]
  LC50: > 100 µM
[5]; read-out: GI50
  GI50: 0.83 µM
[5]; read-out: TGI
  TGI: 23.9 µM
[5]; read-out: pGI50 (converted)
  GI50: 0.813 µM
[5]; read-out: pTGI (converted)
  TGI: 24 µM
[6]
  IC50: 3.3 µM
[6]; read-out: GI50
  GI50: 3.3 µM
[6]; [32]
  CC50: > 100 µM
[6]; read-out: TGI
  TGI: > 100 µM
[6]; read-out: pGI50 (converted)
  GI50: 3.31 µM
[6]; [33]
  CC50: > 100 µM
[6]; read-out: pTGI (converted)
  TGI: > 100 µM
[7]
  growth at 0.01 µM: 96%
[8]
  growth at 0.01 µM: 96%
[9]
  growth at 0.01 µM: 96%
[10]
  growth at 0.01 µM: 97%
[11]
  growth at 0.1 µM: 94%
[12]
  growth at 0.1 µM: 94%
[13]
  growth at 0.1 µM: 95%
[14]
  growth at 0.1 µM: 78%
[15]
  growth at 0.1 µM: 100%
[16]
  growth at 1 µM: 96%
[17]
  growth at 1 µM: 93%
[18]
  growth at 1 µM: 57%
[19]
  growth at 1 µM: 51%
[20]
  growth at 1 µM: 58%
[21]
  growth at 1 µM: 84%
[22]
  growth at 1 µM: 89%
[23]
  growth at 1 µM: 52%
[24]
  growth at 1 µM: 90%
[25]
  growth at 1 µM: 81%
[26]
  growth at 100 µM: 50%
[27]
  growth at 100 µM: -5%
[28]
  growth at 100 µM: 54%
[29]
  growth at 100 µM: 44%
[30]
  growth at 100 µM: 38%
[31]
  growth at 100 µM: 30%
